From US11667649B2, “Heteroaromatic macrocyclic ether chemotherapeutic agents” (Nuvalent, Inc., priority 2020, dated 2023)

Legend:
ALK-wt kinase domain = target: T1, ALK-wt kinase domain (Homo sapiens, UniProt Q9UM73); assay: Biochemical kinase assay, ALK-wt; conditions: 2 mM ATP substrate solution, read-out: Ki^app ALK-wt
T1 construct: TRKA-wt (1 nM, BPS Bio, 40280) kinase domains in buffer; purchased Carna 08-518
Procedure: (§1) First, 250 nL of compound dissolved in DMSO (100-fold of the desired concentration) was dispensed into a 384-well plate. A 12.5 μL substrate solution containing ATP (2 mM) and fluorogenic phosphorylation substrate AQT0101 (26 μM for ALK and ROS1, AssayQuant) or AQT0104 (26 μM for TRKA, AssayQuant) in buffer (50 mM HEPES pH 7.5, 0.01% Brij-35, 0.5 mM EGTA, 10 mM MgCl2) was added and mixed thoroughly. Then, a 12.5 μL kinase solution containing ALK-wt (1.5 nM, Carna, 08-518), ALK ALK L1196M/G1202R (3 nM, SignalChem, A19-12NG), ROS1-wt (0.6 nM, Carna, 08-163), ROS1-G2032R (0.5 nM, SignalChem, R14-12BG), or TRKA-wt (1 nM, BPS Bio, 40280) kinase domains in buffer ([…] HEPES pH 7.5, 0.01% Brij-35, 2% glycerol, 0.4 mg/mL BSA, 0.5 mM EGTA, and 10 mM MgCl2) was added and mixed thoroughly. The plate was sealed and read by SpectraMax Paradigm at λ=485 nm every 2 minutes for 120 minutes at 30° C. Initial rates of reaction (v) were calculated from the change in fluorescence intensity over time during the initial, linear portion of the reaction. Finally, apparent inhibitory constants (Ki^app) were determined from regression of v and I (inhibitor concentration) to Morrison Equation (E=enzyme concentration): […]

ROS1-wt kinase domain = target: T2, ROS1-wt kinase domain (Homo sapiens, UniProt P08922); assay: Biochemical kinase assay, ROS1-wt; conditions: 2 mM ATP substrate solution, read-out: Ki^app ROS1-wt
T2 construct: TRKA-wt (1 nM, BPS Bio, 40280) kinase domains in buffer; purchased Carna 08-163
Procedure: as §1

[1] = target: T3, ALK L1196M/G1202R kinase domain (Homo sapiens, UniProt Q9UM73, G1202R/L1196M); assay: Biochemical kinase assay, ALK L1196M/G1202R; conditions: 2 mM ATP substrate solution, read-out: Ki^app ALK-L1196M-G1202R
T3 construct: TRKA-wt (1 nM, BPS Bio, 40280) kinase domains in buffer; purchased SignalChem A19-12NG
Procedure: as §1

TRKA-wt kinase domain = target: T4, TRKA-wt kinase domain (Homo sapiens, UniProt P04629); assay: Biochemical kinase assay, TRKA-wt; conditions: 2 mM ATP substrate solution, read-out: Ki^app TRKA-wt
T4 construct: TRKA-wt (1 nM, BPS Bio, 40280) kinase domains in buffer; purchased BPS Bio 40280
Procedure: as §1

[2] = target: T5, ROS1-G2032R kinase domain (Homo sapiens, UniProt P08922, G2032R); assay: Biochemical kinase assay, ROS1-G2032R; conditions: 2 mM ATP substrate solution, read-out: Ki^app ROS1-G2032R
T5 construct: TRKA-wt (1 nM, BPS Bio, 40280) kinase domains in buffer; purchased SignalChem R14-12BG
Procedure: as §1

| SMILES | Ki (ALK-wt kinase domain) [µM] | Ki (ROS1-wt kinase domain) [µM] | Ki [1] [µM] | Ki (TRKA-wt kinase domain) [µM] | Ki [2] [µM] |
| --- | --- | --- | --- | --- | --- |
| C[C@H]1Oc2cc(cnc2N)-c2c(c(Cl)nn2CC2CC2)Cc2cn(C)nc2-c2ccc(F)cc21 [Compound 133] | < 0.05 | < 0.05 | < 0.05 | > 0.5 | 0.05 to 0.5 |
| C[C@H]1Oc2cc(cnc2N)-c2c(c(C#N)nn2CC2CC2)Cc2cccnc2-c2ccc(F)cc21 [Compound 123] | < 0.05 | < 0.05 | < 0.05 | > 0.5 | < 0.05 |
| Cc1nn(CC(F)F)c2c1Cc1cn(C)nc1-c1ccc(F)cc1[C@@H](C)Oc1cc-2cnc1N [Compound 79] | < 0.05 | < 0.05 | < 0.05 | > 0.5 | < 0.05 |
| Cc1nc2c(s1)Cn1ncc(C#N)c1-c1cnc(N)c(c1)O[C@H](C)c1cc(F)ccc1-2 [Compound 67] | < 0.05 | < 0.05 | < 0.05 | 0.05 to 0.5 | < 0.05 |
| CCn1cc2c(n1)-c1ccc(F)cc1[C@@H](C)Oc1cc(cnc1N)-c1c(cnn1CC1CC1)C2 [Compound 140] | < 0.05 | < 0.05 | < 0.05 | 0.05 to 0.5 | < 0.05 |
| CC1Oc2cc(cnc2N)-c2c(nn(C)c2C#N)Cc2cnccc2-c2ccc(F)cc21 (stereo not shown) [Compound 59] | < 0.05 | < 0.05 | > 0.5 | 0.05 to 0.5 | 0.05 to 0.5 |
| COc1cc2n(n1)-c1ccc(F)cc1[C@@H](C)Oc1cc(cnc1N)-c1c(c(C)nn1CC1CC1)C2 [Compound 124] | < 0.05 | < 0.05 | < 0.05 | 0.05 to 0.5 | < 0.05 |
| CCc1nnn2c1-c1cnc(N)c(c1)O[C@H](C)c1cc(F)ccc1-c1ncc(F)cc1C2 [Compound 16] | < 0.05 | < 0.05 | < 0.05 | 0.05 to 0.5 | < 0.05 |
| C[C@H]1Oc2cc(cnc2N)-c2c(cnn2CC2CC2)Cc2cc(C(F)(F)F)nn2-c2ccc(F)cc21 [Compound 91] | < 0.05 | < 0.05 | < 0.05 | 0.05 to 0.5 | < 0.05 |
| CCc1noc2c1-c1cnc(N)c(c1)OCc1cc(F)ccc1-c1nn(C)cc1C2 [Compound 30] | < 0.05 | < 0.05 | < 0.05 | > 0.5 | 0.05 to 0.5 |
| C[C@H]1Oc2cc(cnc2N)-c2c(cnn2C2COC2)Cc2cn(C)nc2-c2ccc(F)cc21 [Compound 139] | < 0.05 | < 0.05 | < 0.05 | 0.05 to 0.5 | < 0.05 |
| CCc1noc2c1-c1cnc(N)c(c1)O[C@H](C)c1cc(F)ccc1-c1nn(C)cc1C2 [Compound 19] | < 0.05 | < 0.05 | < 0.05 | < 0.05 | < 0.05 |
| CCn1ncc2c1-c1cnc(N)c(c1)OC(C)c1cc(F)ccc1-c1ccncc1C2 (stereo not shown) [Compound 36] | < 0.05 | < 0.05 | < 0.05 | 0.05 to 0.5 | < 0.05 |
| CCc1nn(C)c2c1-c1cnc(N)c(c1)O[C@H](C)c1cc(F)ccc1-c1nn(C)cc1C2 [Compound 171] | < 0.05 | < 0.05 | < 0.05 | < 0.05 | < 0.05 |
| C[C@H]1Oc2cc(cnc2N)-c2c(C3CCC3)noc2Cc2cn(C)nc2-c2ccc(F)cc21 [Compound 26] | < 0.05 | < 0.05 | < 0.05 | 0.05 to 0.5 | < 0.05 |
| Cc1cc2n(n1)-c1ccc(F)cc1[C@@H](C)Oc1cc(cnc1N)-c1c(c(C)nn1CC1CC1)C2 [Compound 141] | < 0.05 | < 0.05 | < 0.05 | 0.05 to 0.5 | < 0.05 |
| C[C@H]1Oc2cc(cnc2N)-c2c(C#N)nnn2Cc2cn(C)nc2-c2ccc(F)cc21 [Compound 24] | < 0.05 | < 0.05 | < 0.05 | > 0.5 | 0.05 to 0.5 |
